Data as given in patent US20110104055A1, “SUBSTITUTED N-ARYL BENZAMIDES AND RELATED COMPOUNDS FOR TREATMENT OF AMYLOID DISEASES AND SYNUCLEINOPATHIES” (priority 2002, published 2011).

Assays:
Format in all cases: biochemical
Aβ 1-42 fibrils [1] = target: T1, Aβ 1-42 fibrils (Homo sapiens, UniProt P05067); assay: Thioflavin T fluorometry, disruption of pre-formed Aβ 1-42 fibrils (Example 11); settings: 30 μg pre-fibrillized Aβ 1-42, 37° C., 3 days
T1 construct: purchased Bachem Inc
Excerpt: In one study, Thioflavin T fluorometry was used to determine the effects of the compounds, and of EDTA (as a negative control). In this assay Thioflavin T binds specifically to fibrillar amyloid, and this binding produces a fluorescence enhancement at 485 nm that is directly proportional to the amount of amyloid fibrils formed. The higher the fluorescence, the greater the amount of amyloid fibrils formed (Naki et al., Lab. Invest. 65:104-110, 1991; Levine III, Protein Sci. 2:404-410, 1993; Amyloid: Int. J. Exp. Clin. Invest. 2:1-6, 1995).
(§1) Following 3-days of co-incubation, 50 μl of each incubation mixture was transferred into a 96-well microtiter plate containing 150 μl of distilled water and 50 μl of a Thioflavin T solution (i.e. 500 mM Thioflavin T in 250 mM phosphate buffer, pH 6.8). The fluorescence was read at 485 nm (444 nm excitation wavelength) using an ELISA plate fluorometer after subtraction with buffer alone or compound alone, as blank.

Aβ 1-42 fibrils [2] = target: T1, Aβ 1-42 fibrils; assay: Congo red binding assay, Aβ 1-42 fibrils (Example 11); settings: 3-day incubation
Description: (§2) In the Congo red binding assay, the ability of a test compound to alter amyloid (in this case, Aβ) binding to Congo red is quantified. In this assay, Aβ 1-42 and test compounds were incubated for 3 days and then vacuum filtered through a 0.2 μm filter. The amount of Aβ 1-42 retained in the filter was then quantitated following staining of the filter with Congo red. After appropriate washing of the filter, any lowering of the Congo red color on the filter in the presence of the test compound (compared to the Congo red staining of the amyloid protein in the absence of the test compound) was indicative of the test compound's ability to diminish/alter the amount of aggregated and congophilic Aβ.
In one study, the ability of Aβ fibrils to bind Congo red in the absence or presence of increasing amounts of the compounds or EDTA (at Aβ:test compound weight ratios of 1:1, 1:0.1, 1:0.01 or 1:0.001) was determined.

α-synuclein fibrils [3] = target: T2, α-synuclein fibrils (Homo sapiens, UniProt P37840); assay: Thioflavin T fluorometry, disruption of pre-formed α-synuclein fibrils (Example 12); settings: 3 days; for disruption/disassembly of pre-formed α-synuclein fibrils, in words: Thioflavin T fluorometry, all concentrations tested; for % Inhibition α-synuclein (result ± S.D.), Thioflavin T fluorometry: 30 μg pre-fibrillized α-synuclein, 37° C.
T2 construct: purchased rPeptide
Description: In this assay, Thioflavin T binds specifically to α-synuclein fibrils, and this binding produces a fluorescence enhancement at 485 nm that is directly proportional to the amount of α-synuclein fibrils present. The higher the fluorescence, the greater the amount of α-synuclein fibrils present (Naki et al, Lab. Invest. 65:104-110, 1991; Levine III, Protein Sci. 2:404-410, 1993; Amyloid: Int. J. Exp. Clin. Invest. 2:1-6, 1995).
as §1, with “In this study, 30 μg of pre-fibrillized α-synuclein (rPeptide) was incubated at 37° C. for 3 days either alone or in the presence of compounds DC-0051-F1, F2, F3, F4, F5, F6 or EDTA (at α-synuclein:test compound weight ratios of 1:1, 1:0.1, 1:0.01 or 1:0.001). Following” for “Following”

α-synuclein fibrils [4] = target: T2, α-synuclein fibrils; assay: Congo red binding assay, α-synuclein fibrils (Example 12); settings: 3-day incubation
Description: as §2, with “of a given test compound” for “of a test compound”, “this case, α-synuclein) binding to” for “this case, Aβ) binding to”, “this assay, α-synuclein and test” for “this assay, Aβ 1-42 and test”, “amount of α-synuclein retained in” for “amount of Aβ 1-42 retained in”, “and congophilic α-synuclein.” for “and congophilic Aβ.”
In one study, the ability of α-synuclein fibrils to bind Congo red in the absence or presence of increasing amounts of compounds DC-0051-F1, F2, F3, F4, F5, F6 and EDTA (at α-synuclein:test compound weight ratios of 1:1, 1:0.1, 1:0.01 or 1:0.001) was determined.

[5] = Aβ:test compound wt/wt ratio 1:0.001
[6] = Aβ:test compound wt/wt ratio 1:0.01
[7] = Aβ:test compound wt/wt ratio 1:0.1
[8] = Aβ:test compound wt/wt ratio 1:1
[9] = α-synuclein:test compound wt/wt ratio 1:0.001
[10] = α-synuclein:test compound wt/wt ratio 1:0.01
[11] = α-synuclein:test compound wt/wt ratio 1:0.1
[12] = α-synuclein:test compound wt/wt ratio 1:1

T1 sequence (P05067 672-713): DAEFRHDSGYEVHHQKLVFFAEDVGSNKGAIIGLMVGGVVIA

Row | SMILES | % Inhibition Aβ (result ± S.D.), Thioflavin T fluorometry (Aβ 1-42 fibrils [1]; [5]) | % Inhibition Aβ (result ± S.D.), Thioflavin T fluorometry (Aβ 1-42 fibrils [1]; [6]) | % Inhibition Aβ (result ± S.D.), Thioflavin T fluorometry (Aβ 1-42 fibrils [1]; [7]) | % Inhibition Aβ (result ± S.D.), Thioflavin T fluorometry (Aβ 1-42 fibrils [1]; [8]) | % Inhibition Aβ (result ± S.D.), Congo red binding (Aβ 1-42 fibrils [2]; [5]) | % Inhibition Aβ (result ± S.D.), Congo red binding (Aβ 1-42 fibrils [2]; [6]) | % Inhibition Aβ (result ± S.D.), Congo red binding (Aβ 1-42 fibrils [2]; [7]) | % Inhibition Aβ (result ± S.D.), Congo red binding (Aβ 1-42 fibrils [2]; [8]) | disruption/disassembly of pre-formed α-synuclein fibrils, in words (α-synuclein fibrils [3]) | % Inhibition α-synuclein (result ± S.D.), Thioflavin T fluorometry (α-synuclein fibrils [3]; [9]) | % Inhibition α-synuclein (result ± S.D.), Thioflavin T fluorometry (α-synuclein fibrils [3]; [10]) | % Inhibition α-synuclein (result ± S.D.), Thioflavin T fluorometry (α-synuclein fibrils [3]; [11]) | % Inhibition α-synuclein (result ± S.D.), Thioflavin T fluorometry (α-synuclein fibrils [3]; [12]) | % Inhibition α-synuclein (result ± S.D.), Congo red binding (α-synuclein fibrils [4]; [9]) | % Inhibition α-synuclein (result ± S.D.), Congo red binding (α-synuclein fibrils [4]; [10]) | % Inhibition α-synuclein (result ± S.D.), Congo red binding (α-synuclein fibrils [4]; [11]) | % Inhibition α-synuclein (result ± S.D.), Congo red binding (α-synuclein fibrils [4]; [12])
1 | O=C(Nc1cc(O)c(O)cc1F)c1ccc(O)c(O)c1 [DC-0051-F5, N-(2-fluoro-4,5-dihydroxyphenyl)-3,4-dihydroxybenzamide] | 19.5 ± 1.49% | 43.9±2.01% | 91.8±0.22% | 99.8 ± 0.40% | 0.0 ± 2.50% | 9.8 ± 2.54% | 25.7 ± 5.69% | 69.9 ± 2.06% | dose-dependent disruption/disassembly | 5.9 ± 10.41% | 59.0 ± 1.18% | 94.7 ± 1.70% | 98.9 ± 0.65% | 0.0 ± 1.01% | 5.0 ± 5.47% | 32.7 ± 3.96% | 69.4 ± 0.13%
2 | O=C(Nc1ccc(O)c(O)c1)c1cc(O)c(O)cc1F [DC-0051-F2, N-(3,4-dihydroxyphenyl)-2-fluoro-4,5-dihydroxy benzamide] | 17.1 ± 4.32% | 53.7±6.29% | 95.9±0.88% | 99.6 ± 0.55% | 4.9 ± 7.88% | 0.5 ± 5.24% | 49.9±9.13% | 80.1±3.79% | dose-dependent disruption/disassembly | 15.9 ± 7.20% | 61.1±1.37% | 94.7±2.57% | 100.0 ± 1.49% | 0.0 ± 6.71% | 3.7 ± 2.83% | 36.5±53.4% | 67.8±3.52%
3 | O=C(Nc1ccc(O)c(O)c1)c1cc(O)c(O)c(F)c1 [DC-0051-F3, 4,5-Dihydroxy-3-fluoro-N-(3,4-dihydroxyphenyl)benzamide] | 15.1 ± 3.81% | 34.6 ± 2.21% | 92.3 ± 0.19% | 99.0 ± 0.77% | 0.0 ± 2.64% | 0.0 ± 3.25% | 23.3 ± 5.01% | 74.5 ± 2.69% | dose-dependent disruption/disassembly | 13.8 ± 5.12% | 59.6±6.39% | 92.5±2.35% | 96.8 ± 2.82% | 0.0 ± 3.93% | 2.6 ± 4.90% | 23.3 ± 2.24% | 55.9 ± 2.65%
